Reference: article PMC8689140 (Frontiers in Pharmacology, 2021)

Columns and labels:
[1] = design: method as in Skor et al., 2017; Stahl, 2018; conditions: Figure 1A ref Skor et al., 2017, Stahl, 2018, cited from earlier work; for Plasma Leval (DTBZ): share of HTBZ isomers after deutetrabenazine; for Plasma Leval (TBZ): share of HTBZ isomers after tetrabenazine
[2] = test system: VMAT2; design: method as in Skor et al., 2017; Stahl, 2018; conditions: Figure 1A ref Skor et al., 2017; Stahl, 2018; cited from earlier work
[3] = Metabolite identification in dog plasma after oral dose; format: in vivo; conditions: pooled dog plasma after single oral dose of (+)-13e at 3 μmol/kg
Procedure: (§1) Male beagle dogs were randomly divided into four groups. […] The dogs were fasted for 12 h before treatment and 4 h after treatment, but they were granted free access to water. Blood was collected from the vein before administration and 0.083 (only for injection groups), 0.25, 0.5, 1, 2, 3, 4, 6, 8, 12 and 24 h, and placed it in heparinized tubes, and centrifuged it at 8,000 rpm for 10 min at 4°C to separate the plasma, which we stored at −20 °C until analysis. The plasma samples were pretreated by protein precipitation with acetonitrile and quantitated by the validated LC-MS/MS (Shimadzu Exion-Triple Quad 4500) method.
Then, four volumes of acetonitrile (containing 0.1% formic acid) were added into the pooled plasma samples to precipitate the proteins. After vortex-mixing and centrifugation, the supernatants were dried under a nitrogen stream. Then, the residues were resuspended in 100 μl of acetonitrile/water (1:1, v/v) with 0.1% formic acid. After centrifugation, the supernatants were analyzed by UPLC–UV-HRMS for metabolite identification.
The analysis was performed on Acquity UPLC system coupled with a diode array detector (Waters Corporation, United States) and Q Exactive™ Orbitrap HRMS (Thermo Electron Corporation, United States). […] The mobile phase was composed water containing 0.1% formic acid (A) and acetonitrile containing 0.1% formic acid (B). The flow rate was 0.40 ml/min. The elution conditions were the following linear gradient for metabolite identify in HLMs: 0–1 min: 95% A, 1–2 min: 80% A, 2–5 min: 80% A, 5–8 min: 70% A, 8–12 min: 30% A, 12–15 min: 5% A, 15–16 min: 95% A, and 16–18 min: 95% A. The elution conditions were the following for metabolite identify in dog plasma: 0–1 min: 95% A, 1–30 min: 70% A, 30–32 min: 30% A, 32–33 min: 5% A, 33–35 min: 95% A, and 35–40 min: 95% A.
HRMS were operated at positive ion mode using a heating electrospray ionization source (HESI). The optimized operating parameters were set as follows: sheath gas (nitrogen) flow rate of 35 psi, aux gas (nitrogen) flow rate of 10 psi, HESI and capillary temperature of 350°C, and spray voltage of 3.5 kV. The metabolites were detected by full MS/dd-MS^2 analysis from m/z 100 to m/z 1,000. The resolution of the first-class scan and second-class scan was 70 000 and 17 500, respectively. The collision energy for collision induced dissociation (NCE) was set to 20, 40 and 60 eV. The loop count was set to five and the dynamic exclusion duration to 10 s. […] Thermo Compound Discover software was used to identify expected and unknown metabolites, and we finally proposed (+)-13e metabolic pathways based on the deduced metabolites and relevant drug biotransformation knowledge.

[4] = target: T1, rat VMAT2 (Rattus norvegicus, UniProt Q01827); experiment: [3H]DA uptake assay in rat striatal synaptosomes; format: biochemical; conditions: [3H]DA uptake, rat striatal synaptosomes
T1 construct: in vitro [^3H]DA uptake assay in rat striatal synaptosomes; from tissue; host or cells: rat striatal synaptosomes / vesicular suspension
T1 sequence (Q01827 whole entry): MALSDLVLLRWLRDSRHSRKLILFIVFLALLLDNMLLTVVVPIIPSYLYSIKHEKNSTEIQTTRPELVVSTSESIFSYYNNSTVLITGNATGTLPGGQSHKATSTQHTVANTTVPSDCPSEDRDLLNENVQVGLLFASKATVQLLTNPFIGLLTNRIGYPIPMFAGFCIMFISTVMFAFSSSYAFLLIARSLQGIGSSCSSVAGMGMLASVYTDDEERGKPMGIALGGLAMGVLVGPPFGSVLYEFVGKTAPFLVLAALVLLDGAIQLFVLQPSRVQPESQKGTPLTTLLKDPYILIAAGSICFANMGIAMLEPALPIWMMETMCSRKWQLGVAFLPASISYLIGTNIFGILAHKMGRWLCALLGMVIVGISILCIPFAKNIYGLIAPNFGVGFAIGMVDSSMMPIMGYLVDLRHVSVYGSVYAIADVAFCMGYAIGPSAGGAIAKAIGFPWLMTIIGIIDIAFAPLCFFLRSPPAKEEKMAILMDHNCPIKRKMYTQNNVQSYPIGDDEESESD
Procedure: [^3H]DA (dihydroxyphenylethyethylamine, 3,4-[ring-2,5,6-^3H]; specific activity, 28.0 Ci/mmol) was purchased from Perkin Elmer. […] After drying, the filter plate was sealed with unifilter-96 back sealing tape and added 50 μl of microscint-20 (Perkin Elmer), then sealed the top of the filter plate with TopSeal-A. The radioactivity was measured by a TopCount scintillation counter. GraphPad Prism 5.0 was used to analyze data.

[5] = Metabolite identification in human liver microsomes; format: in vitro ADME
Procedure: (§2) Human, rat and dog liver microsomes were carefully thawed on ice prior to the experiment and diluted to 1 mg/ml in100 mM sodium phosphate buffer (pH 7.4) containing 10 mM magnesium chloride. […] After 3 min of preincubation at 37°C, the reactions were initiated by adding 20 µL of NADPH (20 mM) and then incubated at 37°C in a shaking water bath for 60 min. All samples were prepared in duplicates. The reactions were terminated by adding 600 µl of ice-cold acetonitrile and stored at −20°C until analysis. Control samples without NADPH and 0-time point samples were included. As a positive control, testosterone (10 µM) which was metabolized to produce the hydroxylation metabolite was used as a substrate to confirm the activity of the incubation system. Next, the samples were centrifuged at 13,000 rpm for 10 min, the supernatant was separated and evaporated to dryness under a nitrogen stream. The residue was resuspended in 100 μl of acetonitrile, after centrifugation, the supernatants were analyzed by UPLC–UV-HRMS.
(§3) The analysis was performed on Acquity UPLC system coupled with a diode array detector (Waters Corporation, United States) and Q Exactive™ Orbitrap HRMS (Thermo Electron Corporation, United States). […]
(§4) HRMS were operated at positive ion mode using a heating electrospray ionization source (HESI). […] The metabolites were detected by full MS/dd-MS^2 analysis from m/z 100 to m/z 1,000. […]

[6] = Metabolite identification in liver microsomes from humans, dogs and rats (stated across species); format: in vitro ADME, human, dog, rat; conditions: range or bound across the three species
Procedure: as §2, §3, §4

[7] = Metabolite identification in rat liver microsomes; format: in vitro ADME; conditions: NADPH, 60 min
Procedure: as §2, §3, §4

[8] = Metabolite identification in dog liver microsomes; format: in vitro ADME
Procedure: as §2, §3, §4

[9] = test system: T2, rhCYP CYP2D6; experiment: P450 phenotyping, rhCYP isozymes, CYP2D6; format: in vitro ADME, human; conditions: rhCYP2D6 probe substrate, 1 µM
T2 construct: purchased Corning Co., Ltd (Shanghai, China)
From the text: (§5) According to the result of metabolite identification, three metabolites were selected as the targets for metabolic phenotyping. Seven CYP isozymes (CYP1A2, CYP2B6, CYP2C8, CYP2C9, CYP2C19, CYP2D6, and CYP3A4) were investigated using two kinds of methods: chemical inhibitors in human liver microsomes (HLMs) method (Experiment 1) and rhCYP isozymes method (Experiment 2).
Experiment 2: Each rhCYP isozyme was thawed and diluted as above method. As positive controls, the probe substrates of each P450 isozyme were tested under the same conditions. […] Vx ([…]) is the production rate of metabolites for each rhCYP isozyme.

[10] = test system: T3, CYP2D6; experiment: P450 phenotyping, chemical inhibitors in HLMs, CYP2D6; format: in vitro ADME, human; conditions: CYP2D6 probe substrate, 5 µM, specific inhibitor
T3 construct: tissue Corning Co., Ltd (Shanghai, China); host or cells: human liver microsomes
Procedure: as §5
Experiment 1: HLMs were thawed on ice and diluted in100 mM sodium phosphate buffer (pH 7.4) containing 3 mM magnesium chloride. […] After 10 min of preincubation at 37°C, the reactions were initiated by adding 20 µL of NADPH (10 mM) and then incubated at 37 °C in a shaking water bath for 30 min. The samples were prepared in triplicates. The reactions were terminated by adding 600 µL of ice-cold acetonitrile and stored at −20°C until analysis. Control samples without NADPH and 0-time point samples were included. As positive controls, the probe substrates of each P450 isozyme under the same conditions were tested, and specific inhibitors was added. Next, the samples were centrifuged at 13,000 rpm for 10 min, the supernatants were determined by LC–MS/MS.

[11] = test system: VMAT2; design: method as in Yang et al., 2021; conditions: previous study ref Yang et al., 2021; read-out: affinity for VMAT2 IC50; cited from earlier work
[12] = design: method as in Yang et al., 2021; conditions: SD rats, oral administration at an equimolar dose, previous study ref Yang et al., 2021; cited from earlier work
[13] = PK in dogs after single oral or intravenous dose; format: in vivo, dog; conditions: dog
Procedure: as §1
The system consisted of an Exion UHPLC system (Shimadzu, Japan) and a Triple Quad 4500 mass spectrometer (AB Sciex, United States) with an electrospray ionization source. Multiple reaction monitoring in the positive ionization mode was applied to measure analytes. Chromatographic separation was performed on a Acquity BEH C18 column (50 × 2.1 mm i. d., 1.7 μm, Waters, United States). The mobile phase was composed of 0.1% FA in water (A) and 0.1% FA in acetonitrile (B), and the flow rate was 0.4 ml/min. The elution conditions were the following linear gradient: 0–0.4 min: 90% A, 0.4–0.6 min: 60% A, 0.6–1.2 min: 10% A, 1.2–2.2 min: 10% A, 2.2–2.3 min: 90% A, 2.3–3.0 min: 90% A. The optimized parameters were as follows: the spray voltage 5.5 kV, source temperature 550 °C, pressure of source gas 1 and gas 2: 55psi, pressure of curtain gas: 30psi, and the DP, EP and CE voltage was 30,6 and 40 eV, respectively.

[14] = test system: locomotor activity of rats; experiment: Dose-dependent effects on locomotor activity in rats; format: in vivo, rat; conditions: SD rats, single oral gavage 5.2 μmol/kg, 0.5-[…] after dosing
Procedure: Before administration, animals were transported to the test room and allowed to acclimate for at least 1 h. Immediately after drug administration, rats were placed into activity chambers to assess their basal locomotor activity using the TopScan monitoring system. The total travel distance was recorded from 0.5 to 1.5 h after administration in intervals of 10 min.

[15] = no peak in UV, abundance by mass spectrometry

COc1cc2c(cc1OC)[C@H]1C[C@@H](O)[C@H](CC(C)C)CN1CC2 [HTBZ, (+)-α-dihydrotetrabenazine]
Plasma Leval (DTBZ) [1]: 1.7% | Plasma Leval (TBZ) [1]: 1.8% | VMAT2 affinity [2]: High

COc1cc2c(cc1OC)[C@H]1C[C@H](O)[C@H](CC(C)C)CN1CC2 [[+]-β-HTBZ]
Plasma Leval (DTBZ) [1]: 43.8% | Plasma Leval (TBZ) [1]: 37.2% | VMAT2 affinity [2]: High

COc1cc2c(cc1OCC(F)(F)F)CCN1CC(CC(C)C)C(OC3OC(C(=O)O)C(O)C(O)C3O)CC21 (centres unmarked) [M563]
Relative abundance UV area % in dog plasma [3]: 9.92%

CC(C)C[C@@H]1CN2CCc3cc(OCC(F)(F)F)c(OC4OC(C(=O)O)C(O)C(O)C4O)cc3[C@H]2C[C@H]1O (some centres unmarked) [M549]
Relative abundance UV area % in dog plasma [3]: 7.47%

COc1cc2c(cc1OC)C1CC(=O)C(CC(C)C)CN1CC2 (centres unmarked) [TBZ, tetrabenazine, reference compound]
IC90 [4]: 96.9 nM

CC(C)CC1CN2CCc3cc(OCC(F)(F)F)c(O)cc3C2CC1O (centres unmarked) [M373]
Relative abundance Human (*detected by mass spectrometry) [5, 15]: 0.69^* % | relative abundance in liver microsomes from humans, dogs, and rats [6]: less than 3.2% | Relative abundance, UV area % Rat [7]: 2.6% | Relative abundance Dog (*detected by mass spectrometry) [8, 15]: 0.46^* %

COc1ccc2c(c1)[C@]13CCCC[C@@H]1[C@H](C2)N(C)CC3 [Dextromethorphan]
CL int in rhCYP [9]: 13.1 µL/min/pmol | %Inhibation in HLM [10]: 90.7%

COc1cc2c(cc1OCC(F)(F)F)CCN1CC(CC(C)C)C(O)CC21 (racemic) [13e, 3-isobutyl-10-methoxy-9-(2,2,2-trifluoroethoxy)-1,3,4,6,7,11b-hexahydro-2H-pyrido [2,1-a]isoquinolin-2-ol]
IC50 [11]: 5.13 nM | concentration in the brain higher than that of HTBZ [12]: 2 fold

COc1cc2c(cc1OC)[C@@H]1C[C@@H](O)[C@@H](CC(C)C)CN1CC2 [[-]-β-HTBZ]
Plasma Leval (DTBZ) [1]: 6.2% | Plasma Leval (TBZ) [1]: 5.4% | VMAT2 affinity [2]: Low

COc1cc2c(cc1OC)[C@@H]1C[C@H](O)[C@@H](CC(C)C)CN1CC2 [[-]-α-HTBZ]
Plasma Leval (DTBZ) [1]: 48.3% | Plasma Leval (TBZ) [1]: 55.6% | VMAT2 affinity [2]: Low

COc1cc2c(cc1OCC(F)(F)F)CCN1C[C@@H](CC(C)(C)OC3OC(C(=O)O)C(O)C(O)C3O)[C@H](O)C[C@H]21 (some centres unmarked) [M579-1]
Relative abundance UV area % in dog plasma [3]: 3.43%

COc1cc2c(cc1OC)[C@H]1C[C@@H](OC(=O)[C@@H](N)C(C)C)[C@H](CC(C)C)CN1CC2 [VBZ, Valbenazine ditosylate, reference compound]
V, V/F ([13]; single intravenous dose 0.6 μmol/kg): 2.8 ± 0.5 L/kg | clearance ([13]; single intravenous dose 0.6 μmol/kg, read-out: Cl, Cl/F (converted)): 6 mL/min/kg | V, V/F ([13]; single oral dose 3 μmol/kg): 3.5 ± 0.8 L/kg | bioavailability ([13]; male, beagle, plasma, dogs, oral 3 μmol/kg vs intravenous 0.6 μmol/kg, read-out: absolute oral bioavailability): 74.1% | CL/F ([13]; male, beagle, plasma, 3 umol/kg, single oral dose 3 μmol/kg): 8 mL/min/kg | reduction rate (RR) of locomotion [14]: 97.9%

COc1cc2c(cc1OCC(F)(F)F)CCN1CC(CC(C)(C)O)C(O)CC21 (centres unmarked) [M403-2]
Relative abundance, UV area % Human ([5]; NADPH, 60 min, UV area): 12.11% | Relative abundance UV area % in dog plasma [3]: 9.69% | Relative abundance, UV area % Rat [7]: 8.78% | Relative abundance, UV area % Dog ([8]; NADPH, 60 min, UV area): 10.01%

CC(C)(O)C[C@@H]1CN2CCc3cc(OCC(F)(F)F)c(OC4OC(C(=O)O)C(O)C(O)C4O)cc3[C@H]2C[C@H]1O (some centres unmarked) [M565]
Relative abundance UV area % in dog plasma [3]: 10.2%
